Assay results from ChEMBL document CHEMBL1148617, “Design, synthesis, and structure-activity relationships of 1-,3-,8-, and 9-substituted-9-deazaxanthines at the human A2B adenosine receptor” (J Med Chem, 2006).
pKi: −log10 of the molar value.

What was measured:
Adenosine receptor A1 [1] = molecular target: T1, Adenosine receptor A1 (Homo sapiens, UniProt P30542)
T1 sequence (P30542 whole entry): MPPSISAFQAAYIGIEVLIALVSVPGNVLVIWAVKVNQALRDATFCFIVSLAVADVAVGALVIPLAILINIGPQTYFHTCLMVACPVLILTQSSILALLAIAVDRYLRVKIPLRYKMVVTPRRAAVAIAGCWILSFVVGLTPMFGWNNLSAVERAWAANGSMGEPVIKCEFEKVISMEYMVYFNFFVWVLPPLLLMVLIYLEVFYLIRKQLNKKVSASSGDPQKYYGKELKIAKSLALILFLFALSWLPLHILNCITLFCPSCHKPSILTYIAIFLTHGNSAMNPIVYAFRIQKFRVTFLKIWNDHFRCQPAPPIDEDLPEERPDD
Description: Binding affinity to recombinant human adenosine A1 receptor

Adenosine receptor A3 = molecular target: T2, Adenosine receptor A3 (Homo sapiens, UniProt P0DMS8)
T2 sequence (P0DMS8 whole entry): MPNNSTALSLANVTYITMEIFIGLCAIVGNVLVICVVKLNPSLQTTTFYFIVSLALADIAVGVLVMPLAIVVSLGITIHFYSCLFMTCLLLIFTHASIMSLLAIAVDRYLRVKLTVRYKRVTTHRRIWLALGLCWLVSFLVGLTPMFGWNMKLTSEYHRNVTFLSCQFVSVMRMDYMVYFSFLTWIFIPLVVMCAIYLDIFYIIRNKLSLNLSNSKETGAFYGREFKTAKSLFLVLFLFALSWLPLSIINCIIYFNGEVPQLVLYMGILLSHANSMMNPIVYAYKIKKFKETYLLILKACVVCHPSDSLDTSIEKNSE
Description: Binding affinity to recombinant human adenosine A3 receptor

Adenosine receptor A2a [2] = molecular target: T3, Adenosine receptor A2a (Homo sapiens, UniProt P29274)
T3 sequence (P29274 whole entry): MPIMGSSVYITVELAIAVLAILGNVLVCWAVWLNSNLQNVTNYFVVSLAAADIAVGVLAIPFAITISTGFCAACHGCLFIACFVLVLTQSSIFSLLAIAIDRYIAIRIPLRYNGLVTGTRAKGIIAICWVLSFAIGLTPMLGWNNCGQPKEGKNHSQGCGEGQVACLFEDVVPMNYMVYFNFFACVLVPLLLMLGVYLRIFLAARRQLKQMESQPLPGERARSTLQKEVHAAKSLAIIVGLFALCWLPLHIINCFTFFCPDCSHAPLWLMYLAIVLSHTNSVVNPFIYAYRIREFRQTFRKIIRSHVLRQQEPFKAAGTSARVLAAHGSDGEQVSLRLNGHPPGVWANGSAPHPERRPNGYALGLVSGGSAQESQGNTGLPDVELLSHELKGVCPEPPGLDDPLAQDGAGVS
Description: Binding affinity to recombinant human adenosine A2A receptor

Adenosine receptor A2b = molecular target: T4, Adenosine receptor A2b (Homo sapiens, UniProt P29275)
T4 sequence (P29275 whole entry): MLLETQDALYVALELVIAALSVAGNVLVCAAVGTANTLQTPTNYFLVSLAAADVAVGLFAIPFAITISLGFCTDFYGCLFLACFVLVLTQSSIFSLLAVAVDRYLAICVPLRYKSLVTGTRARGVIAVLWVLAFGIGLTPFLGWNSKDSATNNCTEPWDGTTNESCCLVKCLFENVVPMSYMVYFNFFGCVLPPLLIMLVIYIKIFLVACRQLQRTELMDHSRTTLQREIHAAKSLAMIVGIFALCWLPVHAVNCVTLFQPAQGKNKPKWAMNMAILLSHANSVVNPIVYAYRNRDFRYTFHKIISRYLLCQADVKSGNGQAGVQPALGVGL
Description: Binding affinity to recombinant human adenosine A2B receptor

Adenosine receptor A2a [3] = molecular target: T5, Adenosine receptor A2a (Rattus norvegicus, UniProt P30543); assay: Binding affinity to rat adenosine A2A receptor
T5 sequence (P30543 whole entry): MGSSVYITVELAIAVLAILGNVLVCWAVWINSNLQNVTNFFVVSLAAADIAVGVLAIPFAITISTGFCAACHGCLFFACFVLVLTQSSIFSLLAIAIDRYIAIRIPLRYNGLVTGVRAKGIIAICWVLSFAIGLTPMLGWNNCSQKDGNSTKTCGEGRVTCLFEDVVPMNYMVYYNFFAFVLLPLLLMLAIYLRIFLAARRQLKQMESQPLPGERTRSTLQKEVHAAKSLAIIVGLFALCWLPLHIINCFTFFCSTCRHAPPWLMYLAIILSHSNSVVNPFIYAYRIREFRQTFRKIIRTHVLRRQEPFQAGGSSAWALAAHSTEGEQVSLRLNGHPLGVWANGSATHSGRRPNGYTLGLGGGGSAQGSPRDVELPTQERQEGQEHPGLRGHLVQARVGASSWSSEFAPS

Adenosine receptor A1 [4] = molecular target: T6, Adenosine receptor A1 (Rattus norvegicus, UniProt P25099); assay: Binding affinity to rat adenosine A1 receptor
T6 sequence (P25099 whole entry): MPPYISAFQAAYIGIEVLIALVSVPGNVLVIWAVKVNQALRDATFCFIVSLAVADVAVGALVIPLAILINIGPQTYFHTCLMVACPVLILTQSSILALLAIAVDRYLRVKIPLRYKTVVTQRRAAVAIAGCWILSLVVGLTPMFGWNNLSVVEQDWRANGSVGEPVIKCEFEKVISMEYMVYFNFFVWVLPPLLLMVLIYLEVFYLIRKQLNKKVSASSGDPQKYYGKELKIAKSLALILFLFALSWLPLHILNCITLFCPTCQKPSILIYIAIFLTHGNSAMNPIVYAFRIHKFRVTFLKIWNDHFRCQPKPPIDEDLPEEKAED

Adenosine receptor A2a [5] = molecular target: T5, Adenosine receptor A2a; assay: Antagonist potency against adenosine A2A receptor of Sprague-Dawley rat aortic smooth muscle; assay type: functional; conditions: read-out: pA2 (converted)
[6] = molecular target: T7, Adenosine receptor A2b (Homo sapiens) (UniProt P29275); assay: Displacement of [3H]DPCPX from recombinant human adenosine A2B receptor expressed in HEK293 cells at 0.1 uM; assay type: cell-based
T7 sequence (whole entry): T4 sequence (P29275 whole entry)

[7] = molecular target: T7, Adenosine receptor A2b (Homo sapiens); assay: Displacement of [3H]DPCPX from recombinant human adenosine A2B receptor expressed in HEK293 cells at 0.01 uM
Adenosine receptor A2a [8] = molecular target: T3, Adenosine receptor A2a; assay: Displacement of [3H]ZM-241385 from recombinant human adenosine A2A receptor expressed in HeLa cells at 0.1 uM
[9] = molecular target: T8, Adenosine receptor A3 (Homo sapiens) (UniProt P0DMS8); assay: Displacement of [3H]NECA from recombinant human adenosine A3 receptor expressed in HeLa cells at 1uM; assay type: cell-based
T8 sequence (whole entry): T2 sequence (P0DMS8 whole entry)

Compound	pKi (Adenosine receptor A1 [1])	pKi (Adenosine receptor A3)	pKi (Adenosine receptor A2a [2])	pKi (Adenosine receptor A2b)	pKi (Adenosine receptor A2a [3])	pKi (Adenosine receptor A1 [4])	Kb (Adenosine receptor A2a [5]) [nM]	inhibition [6] [%]	inhibition [7] [%]	inhibition (Adenosine receptor A2a [8]) [%]	inhibition [9] [%]
CCCn1c(=O)c2[nH]c(-c3ccc(OCC(=O)NCc4ccccc4)cc3)nc2n(CCC)c1=O	7.20	6.85	7.70								
CCCn1c(=O)c2[nH]c(-c3ccc(OCC(=O)Nc4ccc(Br)cc4)cc3)nc2n(CCC)c1=O		5.63	5.78	8.62							
COc1cc(OCC(=O)Nc2ccc(Br)cc2)ccc1-c1cc2c([nH]1)c(=O)n(C)c(=O)n2C	7.49	4.97					933	83	60	20	
CCCn1c(=O)c2[nH]c(-c3ccc(OCC(=O)Nc4ccc(-c5ccccc5)cc4)cc3)cc2n(C)c1=O	7.96	4.91					468	93	39	15	
Cn1c(=O)c2[nH]c(-c3ccc(OCC(=O)Nc4ccc(Br)cc4)cc3)cc2n(C)c1=O	7.74						126	90	84	12	8
CCCn1c(=O)c2nc(-c3ccc(OCC(=O)Nc4ccc(C)cc4)cc3)[nH]c2n(CCC)c1=O				8.72	6.89						

Further lines, results first:

pKi (Adenosine receptor A1 [1])	pKi (Adenosine receptor A3)	pKi (Adenosine receptor A2a [2])	pKi (Adenosine receptor A2b)	pKi (Adenosine receptor A2a [3])	pKi (Adenosine receptor A1 [4])	Kb (Adenosine receptor A2a [5]) [nM]	inhibition [6] [%]	inhibition [7] [%]	inhibition (Adenosine receptor A2a [8]) [%]	inhibition [9] [%]	Compound
	5.40			5.65	7.20						CCCn1c(=O)c2[nH]c(-c3ccc(OCC(=O)O)cc3)nc2n(CCC)c1=O
8.11	6.04	7.32	8.32				99	73	60		CC(Oc1ccc(-c2cc3c([nH]2)c(=O)n(C)c(=O)n3C)cc1)C(=O)Nc1ccccc1 (configuration not stated)
7.83						51.3	100	72	41	20	Cn1c(=O)c2[nH]c(-c3ccc(OCC(=O)Nc4ccc(F)cc4)cc3)cc2n(C)c1=O
8.37						43.7	91	60	47		Cn1c(=O)c2[nH]c(-c3ccc(OCC(=O)Nc4ccc(C#N)cc4)cc3)cc2n(C)c1=O
